Data taken from patent US10844091B2 (priority 2017, dated 2020).
Marks after values point to notes of the source that are not given here. Non-standard residues stand in square brackets, D forms with d.

Assays:
Assay type in all cases: in vivo
[1] = tested on: rat models with Alzheimer's disease; assay: Extrapolation escape (EE) test, scopolamine-induced Alzheimer's disease model
Description: (§1) White random-bred adult male rats weighing 200-240 g were used. Groups of 7 animals per group were formed. 1st group—control, 2nd—pathology, 3rd—comparator drug, 4th-6th—neuropeptides.
(§2) Scopolamine was administered i.p. to the animals in all groups except for the control at a 1 mg/kg dose daily, once a day for 27 days. From the 28th day on, the animals in groups 2 and 3 were administered the comparator drug and the claimed preparation respectively over the course of 10 days. The drugs were administered daily, once a day.
(§3) The tetrapeptides were administered i.n at a 0.1 mg/kg dose. The animals in the pathology group received 0.9% sodium chloride solution i.n. and i.p. as a placebo.
(§4) The OF and EE tests were conducted on the 1st day, PST—on the 2nd day, CPAR—on the 1st and 10th day post treatment with the preparations. […] The antiamnesic action (AA) in the CPAR test was calculated using Butler's formula [K. S. Radionova. […] After that, the animals were removed from the experiment by administering a narcotic, followed by decapitation. The brain was extracted and weighed, and the brain weight coefficient (BWC) was calculated. Immediately after extraction, the brain was frozen in liquid nitrogen and used in subsequent biochemical and histochemical studies. Glucose levels in whole arterial (common carotid artery) and venous (venous cerebral sinus) blood were determined by the glucose oxidase test, the difference in the arterial-venous glucose content was calculated (glucose consumption marker). The levels of average weight molecules—the toxic products of cell biodegradation damaged during the disease (nucleoside derivatives, peptoids, glucuronic acid salts, etc.) in the blood serum (AWM) were calculated [A. N. Kovalevsky. Notes on the screening method of determination average weight molecules/A. N. Kovalevsky, O. Ye. Nifantiev//Lab. Science. […] 35-39].

ATP = assay: Brain ATP level in rat models with Alzheimer's disease; conditions: tetrapeptide 0.1 mg/kg; as a trend
Description: (§5) The drugs were administered daily, once a day.
1966, t. […] M. I. Prokhorova, Leningrad, pub. House LSU, 1982.—pp. 256-258].

rat models with AD [2] = assay: Open field (OF) test, scopolamine-induced Alzheimer's disease model; conditions: scopolamine AD rats; 0.1 mg/kg i.n. 10 days; p<0.05
Description: as §1, §5
After a course of treatment with the preparations, the CNS function of the animals was evaluated according to the open field (OF), extrapolation escape (EE), and conditioning passive avoidance reflex (CPAR) tests [Guidelines for conducting nonclinical studies of pharmaceuticals/edited by A. N. Mironov, MD, PhD, Part 1, M.: Grief and K, 2012-944 p.; Methods of behavior analysis in neuroscience—London, New York, Washington: CRCPress, 2001.-329 p.], and also The Porsolt swim test (PST) [Methods of behavior analysis in neuroscience—London, New York, Washington: CRCPress, 2001.-329 p; Porsolt R. D. Depression: A new animal model sensitive to antidepressant treatments/R. D. Porsolt, M. LePichon, M. Oalfre//Nature.—1977.—Vol. 266.—P. 730-732.].
The OF and EE tests were conducted on the 1st day, PST—on the 2nd day, CPAR—on the 1st and 10th day post treatment with the preparations. […] The antiamnesic action (AA) in the CPAR test was calculated using Butler's formula [K. S. Radionova. […] The brain was extracted and weighed, and the brain weight coefficient (BWC) was calculated. […]

rat models with AD [3] = assay: Porsolt swim test (PST), scopolamine-induced Alzheimer's disease model; conditions: AD rats; donepezil 1 mg/kg i.p., tetrapeptide (LYS) 0.1 mg/kg i.n.
Description: as §1, §2, §3, §4

[4] = 3 min test, scopolamine 1 mg/kg i.p. 27 days, donepezil 1 mg/kg i.p. 10 days, peptide (LYS) 0.1 mg/kg i.n. 10 days

What does the source list for “acetyl-D-Lys-Lys-Arg-Arg-amide (Ac-[dK]KRR-NH2; SMILES CC(=O)N[C@H](CCCCN)C(=O)N[C@@H](CCCCN)C(=O)N[C@@H](CCCNC(=N)N)C(=O)N[C@@H](CCCNC(=N)N)C(N)=O) [tetrapeptide (LYS), peptide acetyl-X-ARG-ARG-amide, X = D- and L-amino acid residues of lysine]”?
reduction of escape time compared to the pathology group ([1]; 0.1 mg/kg i.n. 10 days, p<0.05): 3.8 times; escape time difference versus donepezil ([1]; 0.1 mg/kg i.n. vs donepezil 1 mg/kg, p<0.05): 41.7%; % of animals succeeded [1, 4]: 100%; Escape time [1, 4]: 11.00 ± 3.07*^ sec.; brain ATP level (ATP): increased ATP level; reduction of the number of grooming acts in the OF (rat models with AD [2]): 44.7%; Latent period of immobilization (rat models with AD [3]): 68.12 ± 6.15 s; Number of immobilization acts (rat models with AD [3]): 6.21 ± 0.82; Total duration of immobilization (rat models with AD [3]): 111.06 ± 13.25 s
